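Following 48 hours of exposure in 96-well plates, responses at five concentrations were used to interpolate endpoints linearly. GI50 = concentration required for 50% inhibition of growth. TGI denotes the concentration required for complete inhibition of growth.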
Columns and labels:
Experiment in all cases: NCI-60 cell line screen, 48 h
SK-MEL-5 melanoma = system: SK-MEL-5 melanoma
HOP-62 NSCLC = system: HOP-62 NSCLC
SF-539 CNS = system: SF-539 CNS
BT-549 breast = system: BT-549 breast
LOX IMVI melanoma = system: LOX IMVI melanoma
SK-OV-3 ovarian = system: SK-OV-3 ovarian
OVCAR-5 ovarian = system: OVCAR-5 ovarian
MCF7 breast = system: MCF7 breast
MDA-MB-231 breast = system: MDA-MB-231 breast
SK-MEL-2 melanoma = system: SK-MEL-2 melanoma

Structure (SMILES)	GI50 (SK-MEL-5 melanoma) [µM]	TGI (SK-MEL-5 melanoma) [µM]	GI50 (HOP-62 NSCLC) [µM]	TGI (HOP-62 NSCLC) [µM]	GI50 (SF-539 CNS) [µM]	TGI (SF-539 CNS) [µM]	GI50 (BT-549 breast) [µM]	TGI (BT-549 breast) [µM]	GI50 (LOX IMVI melanoma) [µM]	TGI (LOX IMVI melanoma) [µM]	GI50 (SK-OV-3 ovarian) [µM]	TGI (SK-OV-3 ovarian) [µM]	GI50 (OVCAR-5 ovarian) [µM]	TGI (OVCAR-5 ovarian) [µM]	GI50 (MCF7 breast) [µM]	TGI (MCF7 breast) [µM]	GI50 (MDA-MB-231 breast) [µM]	TGI (MDA-MB-231 breast) [µM]	GI50 (SK-MEL-2 melanoma) [µM]	TGI (SK-MEL-2 melanoma) [µM]
COc1ccc(C2[C@@H](c3ccccc3)C(=O)N2c2cc(OC)c(OC)c(OC)c2)cc1F (stereo partly specified)	0.0271	0.075	0.0379	> 100	0.0234	0.0706	0.0266	0.09	0.0296	13.8	0.0348	> 100	0.0517	> 100	0.0296	> 100	0.0452	> 100	0.0354	> 100
O=C(/C(=C/c1ccc([N+](=O)[O-])cc1)SCc1ccccc1)c1ccc(Cl)cc1	3.41	12.4	4.52	17.7	2.64	8.2	2.4	6.39	1.69	3.12	14.4	36.4	2.98	11.9			2.67	10.2	15.3	32.5
CCCCCC[C@@H]1CCC2C(CO)[C@@H](O)CC[C@@H]2C1 (stereo partly specified)		34.2		33		33.1				34.6				33.9						43.3
C=CC[C@H](C[C@H](C[C@H](C[C@H](C[C@H](C[C@H](C[C@H](C[C@H](C[C@H](C[C@H](CCCCC)OC)OC)OC)OC)OC)OC)OC)OC)OC)OC		> 100		> 100		> 100				> 100		> 100		> 100						> 100
Cc1ccc(-n2c3nc(=O)[nH]c(=O)c-3cc3cc([N+](=O)[O-])ccc32)cc1	16	36.8	2.57	11.8	13.9	40.8	6.49	27.8	4.77	21.5	37.1	> 100	21.1	50.2			17.8	44.2	44.2	> 100
C/C(=N/Nc1ccc([N+](=O)[O-])cc1[N+](=O)[O-])C(CC(C(=O)NCc1ccccc1)/C(C)=N\Nc1ccc([N+](=O)[O-])cc1[N+](=O)[O-])C(=O)NCc1ccccc1 (stereo unspecified)				13.9		14.9						29.1		56.6						23.9
CC1SC(c2ccc(F)cc2)N(NC(=O)C(O)c2ccccc2)C1=O (stereo unspecified)	> 100	> 100	> 100	> 100	> 100	> 100	> 100	> 100	> 100	> 100			> 100	> 100	> 100	> 100	> 100	> 100	> 100	> 100
O=C1C=CC(=O)c2nc3c(cc21)CCC3		45.9		> 100						29.9				> 100						
CC1(C)OC1COc1c2occc2cc2ccc(=O)oc12 (stereo unspecified)		> 100		> 100		> 100		> 100		> 100				> 100		> 100		> 100		> 100
COc1cc(-c2ccc3cc(OC)c(OC)c(OC)c3c2)cc(OC)c1OC			16.1	75.4	23.6	> 100	30.1	> 100	> 100	> 100	34.4	> 100	> 100	> 100	> 100	> 100	8.91	> 100	16.6	> 100
C=C(C)CCOC(c1ccccc1)(c1ccccc1)c1ccccc1		> 100		> 100		> 100				79.2		> 100		> 100						
O=C(/C=C/c1ccc([N+](=O)[O-])cc1)c1ccc(NCc2nc3ccccc3[nH]2)cc1		16.3		26.7		8.08				6.54		30.1		26.3						29.7
N#C/C(=C\c1cccc(Cl)c1Cl)c1ccccc1		> 100		60.9		53.3				> 100		> 89.9		> 100						> 100
COc1cc(C2CC(C)(O)Oc3cc4c(cc32)OCO4)cc(OC)c1OC (stereo unspecified)		0.494		> 100		0.518		> 100		> 100				> 100		23.6		0.851		
O=C1CCC2(c3ccc(Cl)cc3)Nc3ccncc3N12 (stereo unspecified)						> 10		> 10		> 10		> 10		> 10				> 10		> 10
Cc1cc2c(C)[nH]nc2c(C(=O)O)c1C				> 100		> 100														> 100
COc1ccc2nc(NC(=O)CSc3nnc4n3S(=O)(=O)c3ccccc3N4c3ccccc3)sc2c1	> 100	> 100	2.14	> 100	> 100	> 100	> 100	> 100	> 100	> 100	> 100	> 100	> 100	> 100	> 100	> 100	23.7	> 100		
COc1ccc(C)cc1-c1cc(Sc2ccccc2)c(-c2cc(C)ccc2OC)o1		> 31.6		> 31.6		> 31.6				> 100		> 31.6		> 100						
CCCCCCCCCCCCCCCC[N+](C)(C)Cc1ccccc1	1.33	2.62									1.68	3.7					1.38	3.32		
CC(C)(C)c1cc2c(O)c3cccc4c(=O)c5cccc6c5-c(c34)c2c(c1)c6=O				> 100						> 100		> 100		> 100						> 100
CCN1C(=O)N(c2ccccc2)C2NC(=S)N(/N=C/C=C/c3ccccc3OC)C21 (stereo unspecified)	0.099	0.607	0.127	> 58.5	0.199	0.744	0.112	3.41	0.109	> 69.5			0.17	> 86.2	0.0942	> 64.3	0.0921	5.13	0.166	> 76.2
O=C(Nc1ccccc1-c1nn(C(=S)Nc2ccccc2)c(=S)n(C(=S)Nc2ccccc2)c1=O)C(F)(F)F		26		> 100		> 100				> 66.1		> 100		> 100						> 66.7

Structure (SMILES)	GI50 (SK-MEL-5 melanoma) [µM]	TGI (SK-MEL-5 melanoma) [µM]	GI50 (HOP-62 NSCLC) [µM]	TGI (HOP-62 NSCLC) [µM]	GI50 (SF-539 CNS) [µM]	TGI (SF-539 CNS) [µM]	GI50 (BT-549 breast) [µM]	TGI (BT-549 breast) [µM]	GI50 (LOX IMVI melanoma) [µM]	TGI (LOX IMVI melanoma) [µM]	GI50 (SK-OV-3 ovarian) [µM]	TGI (SK-OV-3 ovarian) [µM]	GI50 (OVCAR-5 ovarian) [µM]	TGI (OVCAR-5 ovarian) [µM]	GI50 (MCF7 breast) [µM]	TGI (MCF7 breast) [µM]	GI50 (MDA-MB-231 breast) [µM]	TGI (MDA-MB-231 breast) [µM]	GI50 (SK-MEL-2 melanoma) [µM]	TGI (SK-MEL-2 melanoma) [µM]
COc1ccc(-c2cn[nH]c2-c2cc(OC)c(OC)c(OC)c2)cc1	0.0243	0.226	0.0352	33.7	0.0218	0.0566			0.123	20.7	0.0293	9.12	0.0375	36.9	0.0284	16.8	0.055	33.1	0.0317	21.5
CN(C)CCn1c2c3ccccc3ccc2c2oc(=O)c3ccccc3c21				28.3		7.1				27.7		7.35		90.4						35
CCOC(=O)C1=C(C(=O)OCC)C2c3ccccc3C=CN2C(C(=O)OCC)=C(SC)S1 (stereo unspecified)		> 100		> 100		> 100				> 100		> 100		> 100						> 100
c1ccc(NCn2cnc3ccccc32)cc1		> 100				> 100				> 100		> 100		> 100						> 100
O=S(=O)(N/N=C/c1cccc(/C=N/NS(=O)(=O)c2ccccc2)c1)c1ccccc1		> 100		> 100		> 100				> 100		> 100		> 100						> 100
COC(=O)C(CCCN1C(=O)c2ccccc2C1=O)C(=O)OC		> 100		> 100		> 100				> 100		> 100		> 100						> 100
O=[N+]([O-])c1ccc(Cl)cc1N/N=C/c1ccnc2ccccc12		> 100		> 100		49.5		> 100				> 100				> 100		> 100		
NC(=O)c1ccccc1NC(=O)C(=O)C(C(=O)c1ccc(Cl)c(Cl)c1)C1OC(=O)c2ccccc21 (stereo unspecified)				> 100										> 100						
Nc1c(C(=O)Nc2cccc(C(F)(F)F)c2)sc2nc3c(cc12)CCCCC3	1.18	12			1.94	4.48	1.7	6.33	3.59	58	1.85	4.36	3.43	17.3	2.35	13.6	4.4	22.7	3.16	19.3
O=C1CN(c2cccc(Cl)c2)C(=O)CN1CCN1CC(=O)N(c2cccc(Cl)c2)CC1=O		> 100		> 100		> 100		> 100				> 100		> 100		> 100				
Cc1ccc(/C=C/C(=O)c2cccc3ccccc23)cc1				37.7								62.5		27.5						32.6
CC(=O)OCCOCNC(=S)N/N=C(\C)c1cnccn1		32.7		> 100		> 100				> 100		> 100		40.5						> 100
O=c1c(-c2ccccc2)c2oc(c1-c1ccccc1)CSCc1cccc(c1)CSC2		> 100		62.4		60.4				> 100		70.1		> 100						> 100
C/C(CCn1[nH]c(=O)ccc1=O)=N\NC(=O)C(=O)NN		> 100		> 100		> 100				> 100		> 100		> 100						> 100
COc1nc(NC2OC(COC(C)=O)C(OC(C)=O)C(OC(C)=O)C2OC(C)=O)c2c(OC(C)=O)cc(=O)oc2n1 (stereo unspecified)		> 100		> 100		> 100				> 100		> 100		> 100						> 100
Cc1ccc(/C=C/C(=O)CCN(C)C)cc1		34.4		> 100		31.3				31.6		> 100		> 100						
CC(=O)NNc1nc(C)c(C(=O)/C=C/c2ccc(NC(C)=O)cc2)s1		> 100		> 100		> 100				> 100		> 100		> 100						> 100
CCCCCCCCCCn1cc[n+](C)c1	1.17	2.79	3.16	17.5	2.51	13.5	1.56	8.2	1.79	13.2	2.62	20.9	2.93	> 100	1.69	13.6	2.73	16.9		
O=C(Oc1ccc(Cl)cc1)c1ccccc1Nc1ccnc(C(F)(F)F)c1	16.8	36.2			15	32.7	14.9	41.2					25.6	84.4	3.73	14.7	1.78	7.04	20.2	> 100
CC(=O)O/N=C(/C)c1ccccc1O				> 100		> 100				> 100		> 100		> 100						> 100
S=c1sc2c(n1-c1ccccc1)NC=NC2S (stereo unspecified)		> 100		> 100		> 100				> 100		> 100		> 100						> 100
